Experimental data from ChEMBL document CHEMBL2016513, “Synthesis and evaluation of human phosphodiesterases (PDE) 5 inhibitor analogs as trypanosomal PDE inhibitors. Part 1. Sildenafil analogs” (Bioorg Med Chem Lett, 2012).

molecular target: T1, Class 1 phosphodiesterase PDEB1 (Trypanosoma brucei) (UniProt Q8WQX9); assay: Inhibition of Trypanosoma brucei PDEB1 at 100 uM
T1 sequence (whole entry): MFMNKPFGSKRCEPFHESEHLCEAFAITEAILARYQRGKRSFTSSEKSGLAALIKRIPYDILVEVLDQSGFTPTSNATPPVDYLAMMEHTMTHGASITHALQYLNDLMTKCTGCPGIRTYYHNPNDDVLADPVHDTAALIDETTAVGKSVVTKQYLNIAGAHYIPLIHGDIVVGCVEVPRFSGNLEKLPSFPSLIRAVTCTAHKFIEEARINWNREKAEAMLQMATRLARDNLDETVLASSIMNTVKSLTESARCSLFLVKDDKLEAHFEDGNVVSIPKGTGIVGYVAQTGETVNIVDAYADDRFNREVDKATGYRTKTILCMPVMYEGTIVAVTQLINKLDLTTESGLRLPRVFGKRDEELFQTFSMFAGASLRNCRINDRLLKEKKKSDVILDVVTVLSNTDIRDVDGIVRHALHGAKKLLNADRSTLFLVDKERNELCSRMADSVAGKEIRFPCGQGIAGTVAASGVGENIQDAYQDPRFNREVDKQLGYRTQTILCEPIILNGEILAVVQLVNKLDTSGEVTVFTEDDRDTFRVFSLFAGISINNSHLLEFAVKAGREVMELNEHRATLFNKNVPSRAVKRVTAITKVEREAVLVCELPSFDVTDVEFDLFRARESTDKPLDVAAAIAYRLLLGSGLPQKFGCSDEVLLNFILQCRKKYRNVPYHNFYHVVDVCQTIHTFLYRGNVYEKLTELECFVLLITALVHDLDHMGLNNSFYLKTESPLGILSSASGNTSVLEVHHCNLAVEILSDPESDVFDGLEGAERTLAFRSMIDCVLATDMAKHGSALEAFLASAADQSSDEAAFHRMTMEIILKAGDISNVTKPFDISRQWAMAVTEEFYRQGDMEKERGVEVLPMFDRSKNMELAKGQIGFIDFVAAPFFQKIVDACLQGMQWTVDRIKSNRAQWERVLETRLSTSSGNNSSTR

| inhibition | Structure (SMILES) |
| --- | --- |
| 21.8% | CCCc1nn(C)c2c(=O)[nH]c(-c3ccccc3OCC)nc12 |
| 30% | CCCc1nn(C)c2c(=O)[nH]c(-c3cnc(C)cn3)nc12 |
| 32.4% | CCCc1nn(-c2cccnc2)c2c(=O)[nH]c(-c3cc(S(=O)(=O)N4CCN(C)CC4)ccc3OCC)nc12 |
| 8.4% | CCCc1nn(C)c2c(=O)[nH]c(-c3cccc(S(=O)(=O)N4CCN(C)CC4)c3)nc12 |
| 16.3% | CCCc1nn(C)c2c(=O)[nH]c(-c3snnc3C)nc12 |
| 22.9% | CCOc1ccccc1-c1nc2c(-c3ccccc3)n[nH]c2c(=O)[nH]1 |
| 3.2% | CCCc1nn(C)c2c(=O)[nH]c(-c3nnco3)nc12 |
| 17.5% | CCOc1ccc(S(=O)(=O)N2CCN(C)CC2)cc1-c1nc2c(-c3ccccc3)nn(C)c2c(=O)[nH]1 |
| 7.2% | CCCc1nn(C)c2c(=O)[nH]c(-c3cn(C)nc3C)nc12 |
| 22.5% | CCCc1nn(C)c2c(=O)[nH]c(-c3cccnc3O)nc12 |
| 70.9% | CCOc1ccc(S(=O)(=O)N2CCN(C)CC2)cc1-c1nc2c(-c3ccccc3)n[nH]c2c(=O)[nH]1 |
| 7% | CCOc1ccccc1-c1nc2c(-c3ccccc3)nn(CC(N)=O)c2c(=O)[nH]1 |
| 5.3% | CCCc1nn(C)c2c(=O)[nH]c(-c3cn(C)cn3)nc12 |
| 25.4% | CCCc1nn(C)c2c(=O)[nH]c(-c3cscn3)nc12 |
| 13.6% | CCOc1ccc(S(=O)(=O)N2CCN(C)CC2)cc1-c1nc2cnn(C)c2c(=O)[nH]1 |
| 14.1% | CCCc1nn(C)c2c(=O)[nH]c(-c3nccnc3N)nc12 |
| 51.5% | CCCc1nn(C)c2c(=O)[nH]c(-c3cc(S(=O)(=O)N4CCN(C)CC4)ccc3OCC)nc12 |
| 13.8% | CCCc1nn(C)c2c(=O)[nH]c(-c3ccoc3)nc12 |
| 24% | CCCc1nn(C)c2c(=O)[nH]c(-c3ccc(O)cc3)nc12 |
| 6.5% | CCCc1nn(C)c2c(=O)[nH]c(-c3cnccn3)nc12 |
| 53.8% | CCCc1nn(C)c2c(=O)[nH]c(-c3cccnc3OC(C)C)nc12 |
| 11.1% | CCCc1nn(C)c2c(=O)[nH]c(-c3ccc(=O)[nH]n3)nc12 |
| 72.1% | CCCc1nn(C)c2c(=O)[nH]c(-c3ncccc3C)nc12 |
| 16% | CCCc1n[nH]c2c(=O)[nH]c(-c3cc(S(=O)(=O)N4CCN(C)CC4)ccc3OCC)nc12 |
| 41.5% | CCCc1nn(C)c2c(=O)[nH]c(-c3cccnc3OCC)nc12 |
| 77.2% | CCCc1nn(C)c2c(=O)[nH]c(-c3cccnc3OC)nc12 |
| 29% | CCCc1nn(C)c2c(=O)[nH]c(-c3oc(C)nc3C)nc12 |

test system: not listed separately; assay: Solubility of the compound in 10% DMSO; assay type: physicochemical

| solubility | Structure (SMILES) |
| --- | --- |
| Insoluble | CCOc1ccccc1-c1nc2c(-c3ccccc3)nn(-c3ccccc3)c2c(=O)[nH]1 |
| Insoluble | CCCc1nn(C)c2c(=O)[nH]c(-c3ccnn3C)nc12 |
| Insoluble | CCOc1ccc(S(=O)(=O)N2CCN(C)CC2)cc1-c1nc2c(C)nn(C)c2c(=O)[nH]1 |
| Insoluble | CCCc1n[nH]c2c(O)nc(-c3ccccc3OCC)nc12 |
| Insoluble | CCCc1nn(C)c2c(=O)[nH]c(-c3ccsc3)nc12 |
| Insoluble | CCOc1ccccc1-c1nc2c(-c3ccccc3)nn(-c3cccnc3)c2c(=O)[nH]1 |
